Reference: US7189751B2, “Oxa(thia)zolidine compounds, process for preparation thereof and anti-inflammatory agents” (Nippon Soda Co., Ltd., priority 2001, dated 2007)

Assays:
[1] = test system: Mouse Delayed Contact Dermatitis Induced by Picryl Chloride; test: Mouse delayed contact dermatitis induced by picryl chloride; format: in vivo
Method: Pharmacological Test Example 3 Mouse Delayed Contact Dermatitis Induced by Picryl Chloride
This pharmacological test was carried out referring to the method of Asherson, G. L. & Ptak, W. (Immunology, 15: 405–416 (1968).) and the method of Jun Hiroi (Folia Pharmacology of Japan, 86: 233–239 (1985).). More specifically, hairs on the abdomen of an ICR-strain male mouse were removed using an electric clipper and an electric shaver. Then, 0.1 mL of 7% ether solution of picryl chloride (Tokyo Kasei Kogyo Co., Ltd., C 0307) was applied onto the abdomen for sensitization. On the sixth day after the sensitization, 20 μL/ear of 1% olive oil solution of picryl chloride was topically applied to the anterior and posterior surfaces of both ears of the mouse to induce contact dermatitis (first induction). Before and 24 hours after the induction, the thicknesses of the particular parts on the both ears were measured three times, respectively, using a digimatic micrometer (Mitsutoyo Co., Ltd.) to work out the average values. Ear edema of the both ears was respectively determined by subtracting the average thickness of the each ear before the induction from that on 24 hours after the induction, so that a grouping was carried out to separate the appropriate individuals. On the fourth day after the first induction, the hairs on the abdomen were removed again, and 0.1 mL of 7% ethanol solution of picryl chloride was applied thereto for additional sensitization. The contact dermatitis for evaluating activity was induced by re-applying 20 μL/ear of 1% olive oil solution of picryl chloride to the anterior and posterior surfaces of both ears (second induction) on the seventh day after the additional sensitization (on the […] after the first sensitization). The activity of each compound of the present invention was evaluated as the inhibition on the contact dermatitis as compared with that of the vehicle applied control. That is, the thicknesses of the particular portions of the both ears were measured respectively three times with a digimatic micrometer to work out the mean values before, 24 hours and 48 hours after the second induction. Ear swelling was determined by subtracting the ear thickness before the second induction from that on 24 hours and 48 hours after the second induction, respectively. Topical application activity was evaluated by applying 25 μL of the acetone solution of the compound of the present invention similarly to the anterior and posterior surfaces of the right ear one hour before and 16 hours after the second induction. As the positive control, 0.02 mg/20 μL of acetone solution of Dexamethasone (hereinafter referred to as DEX, Wako Pure Chemical Industries Ltd., 047-18863) was applied similarly as for the compound of the present invention. With respect to the inhibitory activity in topical application tests, the topical activity was determined by the inhibition of the applied right ear edema, and the translocation and distribution property was determined by the activity onto the swelling of non-treated left ear. Oral administration activity was evaluated by administrating 0.5% methyl cellulose suspension of the compound of the present invention forcibly and perorally to the mouse an hour before and 16 hours after the second induction. As the positive control, 20 mg/kg of Prednisolone (Sigma Chemical Co., P 6004) suspension was administrated similarly as for the compounds of the present invention. […] As the examples, the body weight changes in the mice for 48 hours after the second induction when they were administrated with the compounds shown in Table 5 are shown in Table 6.

[2] = test system: Mouse Delayed Contact Dermatitis Induced by Picryl Chloride; test: as above; format: in vivo; remark: listed apart in the source

SMILES: C[C@@H]1C[C@H]2[C@@H]3CCC4=CC(=O)C=C[C@]4(C)[C@@]3(F)[C@@H](O)C[C@]2(C)[C@@]1(O)C(=O)CO [DEX, Dexamethasone]
- Change in body weight 48 hours after induction (Mean ± S.E.) ([1]; 0.02 mg/ear × 2, vehicle control −0.45 ± 0.20): -1.42 ± 0.20 g
- Change in body weight 48 hours after induction (Mean ± S.E.) (%) ([1]; 0.02 mg/ear × 2, vehicle control −1.29 ± 0.59): −4.30 ± 0.59%
- intoxicated symptoms ([1]; mice of the picryl chloride dermatitis test): showed intoxicated symptoms
- body weight 48 hours after the second induction ([1]; mice of the picryl chloride dermatitis test, 48 hours after the second induction): reduced significantly
- Ear swelling after 24 hours, Right (Applied) (Mean ± S.E., mm) ([2]; topical 0.02 mg/25 μL/ear × 2, vehicle control 0.299 ± 0.006): 0.057 ± 0.009 mm
- Ear swelling after 24 hours, Left (Not applied) (Mean ± S.E., mm) ([2]; topical 0.02 mg/25 μL/ear × 2 on right ear, vehicle control 0.284 ± 0.008): −0.005 ± 0.033 mm
